What was measured:
ATR enzyme = ATR enzyme (Homo sapiens (Human), UniProt Q13535); experiment: Inhibitory effect on ATR enzyme (HTRF, phospho-P53); type: biochemical; conditions: 90 minutes incubation, 150 nM ATP final; read-out: IC50 for ATR enzyme inhibition
Method in brief: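 Recombinant ATR phosphorylating GST-tagged P53 with 150 nM ATP final (40 nM final P53), 10-point compound series from 2985.0 to 0.15 nM, 0.498% DMSO, 90 min at room temperature. Detection with anti-phospho-p53-Eu/anti-GST-d2 overnight at 4° C in dark; HTRF 665/612 ratio used to derive IC50.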

SNU-601 cells = experiment: SNU-601 cell proliferation experiment (CellTiter-Glo, intracellular ATP); type: cell-based; conditions: 120 h; SNU-601 human gastric cancer cells, 5 days; read-out: IC50 for inhibition of SNU-601 cell proliferation
Method in brief: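 Human gastric cancer cells in RPMI 1640/10% FBS plated and settled 24 h before adding compounds in a 10-point 3-fold series (2 mM DMSO top stock). Exposure 5 days at 37 °C, 5% CO2. Viability by CellTiter-Glo luminescence (ATP); IC50 from the curves.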

LoVo cells = experiment: LoVo cell proliferation experiment (CellTiter-Glo, intracellular ATP); type: cell-based; conditions: 96 h; LoVo human colon cancer cells, 4 days; read-out: IC50 for inhibition of LoVo cell proliferation
Experimental: The following method is used to evaluate the inhibitory effect of the compounds of the present invention on LoVo cell proliferation according to the IC50 values by means of detecting the intracellular ATP content. The experimental method is briefly described as follows:
1. LoVo, human colon cancer tumor cells (Co-bioer, CBP60032)
LoVo cells were cultured in F-12K medium containing 10% FBS and passaged 2 to 3 times a week at a split ratio of 1:3 or 1:5. During passage, the cells were trypsinized and transferred to a centrifuge tube. The tube was centrifuged at 1000 rpm for 5 minutes, the supernatant medium was discarded, and fresh medium was added to resuspend the cells. 100 μL of cell suspension at a density of 1.5×10^4 cells/mL was added to a 96-well cell culture plate, and 100 μL of complete medium only was added to the periphery wells of the 96-well plate. The culture plate was incubated in an incubator for 24 hours (37° C., 5% CO2).
The sample to be tested was diluted to 1 mM with DMSO, diluted 3-fold serially to 8 concentrations, and prepared to 200× dilution with cell culture medium. Blank and control wells were set. 5 μL of the solution containing the compound to be tested prepared in gradient concentrations was added to 95 μL of fresh medium. 100 μL of 1× culture medium containing the compound was added to the culture plate. The culture plate was incubated in an incubator for 4 days (37° C., 5% CO2). 50 μL of CellTiter-Glo reagent was added to each well of the 96-well cell culture plate, and the plate was placed at room temperature in the dark for 5-10 min. The chemiluminescent signal values were read in PHERAstar, and data were processed using GraphPad software.
The inhibitory effect of the compounds of the present invention on LoVo cell proliferation can be determined by the test described above, and the measured IC50 values are shown in Table 2.

Chain of ATR enzyme (Q13535 whole entry): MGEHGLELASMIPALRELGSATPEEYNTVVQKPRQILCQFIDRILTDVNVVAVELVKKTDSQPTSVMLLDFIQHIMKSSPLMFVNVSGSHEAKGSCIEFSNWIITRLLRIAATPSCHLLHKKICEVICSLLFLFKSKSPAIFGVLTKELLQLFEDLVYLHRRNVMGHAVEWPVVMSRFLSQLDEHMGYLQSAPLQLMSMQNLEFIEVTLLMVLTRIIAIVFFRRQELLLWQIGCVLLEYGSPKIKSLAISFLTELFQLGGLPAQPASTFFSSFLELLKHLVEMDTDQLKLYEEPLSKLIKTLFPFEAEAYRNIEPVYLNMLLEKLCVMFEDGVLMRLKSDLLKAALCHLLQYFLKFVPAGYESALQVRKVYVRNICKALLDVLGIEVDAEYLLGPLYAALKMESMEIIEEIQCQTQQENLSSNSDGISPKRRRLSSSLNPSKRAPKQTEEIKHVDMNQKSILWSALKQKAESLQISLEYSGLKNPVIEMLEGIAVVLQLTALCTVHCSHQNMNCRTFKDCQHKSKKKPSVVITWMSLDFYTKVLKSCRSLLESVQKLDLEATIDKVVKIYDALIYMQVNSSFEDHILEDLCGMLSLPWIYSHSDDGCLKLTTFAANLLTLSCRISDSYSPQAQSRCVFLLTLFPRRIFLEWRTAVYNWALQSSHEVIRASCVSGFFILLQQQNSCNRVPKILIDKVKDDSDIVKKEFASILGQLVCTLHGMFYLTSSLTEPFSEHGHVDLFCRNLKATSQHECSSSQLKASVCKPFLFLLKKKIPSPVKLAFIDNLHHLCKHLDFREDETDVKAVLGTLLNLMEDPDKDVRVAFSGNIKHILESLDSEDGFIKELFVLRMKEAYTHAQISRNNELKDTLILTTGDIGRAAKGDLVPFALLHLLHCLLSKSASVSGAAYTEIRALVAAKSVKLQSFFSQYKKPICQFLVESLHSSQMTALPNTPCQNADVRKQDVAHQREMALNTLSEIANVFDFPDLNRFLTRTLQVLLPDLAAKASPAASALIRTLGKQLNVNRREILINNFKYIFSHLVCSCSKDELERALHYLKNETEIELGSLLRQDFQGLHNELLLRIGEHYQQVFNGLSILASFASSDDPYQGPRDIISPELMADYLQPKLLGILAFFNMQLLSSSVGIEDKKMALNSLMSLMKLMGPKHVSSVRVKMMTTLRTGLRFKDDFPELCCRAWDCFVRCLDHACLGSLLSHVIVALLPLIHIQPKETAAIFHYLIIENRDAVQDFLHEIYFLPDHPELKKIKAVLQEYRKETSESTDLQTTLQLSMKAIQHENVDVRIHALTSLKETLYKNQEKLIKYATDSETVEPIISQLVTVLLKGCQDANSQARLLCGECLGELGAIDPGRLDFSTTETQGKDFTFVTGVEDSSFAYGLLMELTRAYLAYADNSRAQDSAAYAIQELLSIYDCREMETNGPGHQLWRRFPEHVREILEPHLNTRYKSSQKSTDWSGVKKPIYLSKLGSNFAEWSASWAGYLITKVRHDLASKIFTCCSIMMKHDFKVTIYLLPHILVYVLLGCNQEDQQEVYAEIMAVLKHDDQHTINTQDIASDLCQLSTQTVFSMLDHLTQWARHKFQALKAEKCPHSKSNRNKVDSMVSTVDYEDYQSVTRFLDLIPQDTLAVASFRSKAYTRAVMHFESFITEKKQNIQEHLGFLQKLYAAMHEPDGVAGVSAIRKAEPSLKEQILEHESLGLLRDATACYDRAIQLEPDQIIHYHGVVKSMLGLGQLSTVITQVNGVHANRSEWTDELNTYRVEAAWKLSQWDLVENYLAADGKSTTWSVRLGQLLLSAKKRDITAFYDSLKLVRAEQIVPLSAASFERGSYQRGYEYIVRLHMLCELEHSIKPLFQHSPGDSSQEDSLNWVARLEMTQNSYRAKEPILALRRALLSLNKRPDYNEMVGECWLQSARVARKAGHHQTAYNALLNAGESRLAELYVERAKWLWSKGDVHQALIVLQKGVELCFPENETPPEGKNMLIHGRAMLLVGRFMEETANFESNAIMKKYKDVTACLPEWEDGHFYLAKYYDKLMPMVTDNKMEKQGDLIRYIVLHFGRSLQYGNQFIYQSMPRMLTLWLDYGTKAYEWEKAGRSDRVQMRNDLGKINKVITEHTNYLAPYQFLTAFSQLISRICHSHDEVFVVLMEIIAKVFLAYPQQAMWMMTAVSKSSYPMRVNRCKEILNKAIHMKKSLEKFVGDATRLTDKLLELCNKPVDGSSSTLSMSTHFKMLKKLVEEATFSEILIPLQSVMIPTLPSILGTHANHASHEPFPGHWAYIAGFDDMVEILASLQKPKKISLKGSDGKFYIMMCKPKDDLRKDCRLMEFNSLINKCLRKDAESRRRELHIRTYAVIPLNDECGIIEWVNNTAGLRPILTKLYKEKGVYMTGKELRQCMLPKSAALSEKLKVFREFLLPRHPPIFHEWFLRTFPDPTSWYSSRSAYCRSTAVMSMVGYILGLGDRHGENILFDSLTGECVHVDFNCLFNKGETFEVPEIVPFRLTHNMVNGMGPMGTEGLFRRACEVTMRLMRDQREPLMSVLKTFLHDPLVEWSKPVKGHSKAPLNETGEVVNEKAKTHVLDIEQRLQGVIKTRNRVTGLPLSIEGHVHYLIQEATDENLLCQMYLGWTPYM
Chain of ATR enzyme (Q8WXE1 whole entry partner): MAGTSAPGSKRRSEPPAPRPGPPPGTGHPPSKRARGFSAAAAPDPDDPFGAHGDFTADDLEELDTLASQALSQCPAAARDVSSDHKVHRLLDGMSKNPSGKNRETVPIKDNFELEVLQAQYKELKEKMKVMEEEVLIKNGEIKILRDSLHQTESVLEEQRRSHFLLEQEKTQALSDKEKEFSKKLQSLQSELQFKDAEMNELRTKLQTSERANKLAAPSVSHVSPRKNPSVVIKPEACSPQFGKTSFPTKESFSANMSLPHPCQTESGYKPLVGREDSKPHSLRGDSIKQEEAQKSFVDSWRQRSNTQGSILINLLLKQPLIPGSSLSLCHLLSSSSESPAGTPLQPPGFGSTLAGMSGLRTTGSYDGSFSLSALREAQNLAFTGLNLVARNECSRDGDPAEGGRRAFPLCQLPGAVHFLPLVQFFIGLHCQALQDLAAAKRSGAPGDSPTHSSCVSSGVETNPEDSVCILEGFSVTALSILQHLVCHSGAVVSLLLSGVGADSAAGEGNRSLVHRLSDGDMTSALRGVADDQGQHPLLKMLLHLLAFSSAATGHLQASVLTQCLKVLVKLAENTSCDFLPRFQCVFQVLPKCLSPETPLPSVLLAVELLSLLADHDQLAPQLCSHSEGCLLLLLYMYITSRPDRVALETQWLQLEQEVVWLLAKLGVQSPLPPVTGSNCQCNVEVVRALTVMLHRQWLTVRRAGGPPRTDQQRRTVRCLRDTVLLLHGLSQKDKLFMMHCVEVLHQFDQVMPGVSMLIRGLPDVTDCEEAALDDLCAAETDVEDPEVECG

C[C@@H]1COCCN1c1cc([C@]2(O)C[C@H]3CC[C@@H](C2)O3)c2cnn(-c3ccn[nH]3)c2n1 [RP3500, reference compound]
IC50 (ATR enzyme): ≤ 10 nM | IC50 (SNU-601 cells): 10 to 100 nM | IC50 (LoVo cells): 20 to 100 nM

From patent US20250066350A1, “AROMATIC HETEROCYCLE-SUBSTITUTED COMPOUNDS, AND PREPARATION METHOD THEREFOR AND USE THEREOF” (Innovstone Therapeutics Limited, priority 2021, published 2025)
